Converted amounts (≈) assume the structure as drawn.

In one experiment the test system is N. gonorrhoeae H041. The experiment is described as follows: Liquid broth MIC in Fastidious broth. It is filed as cell-based. As to conditions: Neisseria gonorrhoeae, H041, read-out: Minimum Inhibitory Concentration, N. gonorrhoeae H041. The method in brief:
(§1)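 Colonies were swabbed from chocolate agar after 24 h growth and standardised by optical density at 600 nm. Compounds were serially diluted twofold in Fastidious broth, and bacteria added to give 5×10^5 CFU/mL. After about 24 h at 36 °C in 5% CO2, the lowest concentration allowing under 10% growth was taken as MIC.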

Another experiment concerns N. gonorrhoeae WHO L. The experiment in a line: Liquid broth MIC in Fastidious broth. As to conditions: Neisseria gonorrhoeae; N. gonorrhoeae strain WHO L; Fastidious broth; read-out: Minimum Inhibitory Concentration, N. gonorrhoeae WHO L. The format is cell-based. The method in brief: as §1
Experiment [1] deals with N. gonorrhoeae ATCC 49226. The experiment in a line: Liquid broth MIC in Fastidious broth. The format is cell-based. The settings on record: Neisseria gonorrhoeae, ATCC49226; N. gonorrhoeae strain ATCC 49226; Fastidious broth; read-out: Minimum Inhibitory Concentration, N. gonorrhoeae ATCC 49226. The method in brief: as §1
For a further experiment, the system named is N. gonorrhoeae WHO G. The experiment is described as follows: Liquid broth MIC in Fastidious broth. It is filed as cell-based. As to conditions: Neisseria gonorrhoeae; N. gonorrhoeae strain WHO G; Fastidious broth; read-out: Minimum Inhibitory Concentration, N. gonorrhoeae WHO G. The method in brief: as §1
The subject of another experiment is N. gonorrhoeae WHO K. The experiment is described as follows: Liquid broth MIC in Fastidious broth. It is filed as cell-based. As to conditions: Neisseria gonorrhoeae, read-out: Minimum Inhibitory Concentration, N. gonorrhoeae WHO K. The method in brief:
as §1

Another experiment deals with N. gonorrhoeae FA1090. The experiment is described as follows: Liquid broth MIC in Fastidious broth. The format is cell-based. As to conditions: Neisseria gonorrhoeae; N. gonorrhoeae strain FA1090; Fastidious broth; read-out: Minimum Inhibitory Concentration, N. gonorrhoeae FA1090. The method in brief: as §1
Experiment [2] in a line: Bocillin-FL fluorescence polarization competition binding assay, A. baumannii PBP3. The settings on record: fluorescence polarization competition binding assay using Bocillin-FL; column 3; read-out: 4. baumannii PBP1a Potency. The method in brief: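 A. baumannii PBP2 (2.5 μM) and PBP3 (0.2 μM) were run in 25 mM Tris pH 8.0 buffer with Tween 20; E. coli PBP3 (1.5 μM) and N. gonorrhoeae PBP2 ([…]) in 50 mM Hepes pH 8.0 buffer.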

Another experiment concerns N. gonorrhoeae WHO Z. The experiment in a line: Liquid broth MIC in Fastidious broth. The settings on record: Neisseria gonorrhoeae, read-out: Minimum Inhibitory Concentration, N. gonorrhoeae WHO Z. The format is cell-based. The method in brief:
as §1

For the next experiment, the system named is N. gonorrhoeae WHO Q. The experiment is described as follows: Liquid broth MIC in Fastidious broth. It is filed as cell-based. The settings on record: Neisseria gonorrhoeae, read-out: Minimum Inhibitory Concentration, N. gonorrhoeae WHO Q. The method in brief: as §1

For `NCCN1CCN(C(=O)N[C@@H](C(=O)N[C@H]2Cc3ccc(F)c(C(=O)O)c3OB2O)c2c(F)cc(O)c(O)c2Cl)C(=O)C1=O` (single isomer, unassigned) [Example 26], the MIC is more than 64 mg/L in the experiment with N. gonorrhoeae H041; more than 64 mg/L in the experiment on N. gonorrhoeae WHO L; more than 64 mg/L in experiment [1]; more than 64 mg/L in the experiment on N. gonorrhoeae WHO G; more than 64 mg/L with N. gonorrhoeae WHO K; 16 to 32 mg/L (≈ 25.6 to 51.1 µM) in the experiment on N. gonorrhoeae FA1090. The EC50 in experiment [2] was 30 to 100 µM.
On to `NCCCN1CCN(C(=O)N[C@@H](C(=O)N[C@H]2Cc3ccc(F)c(C(=O)O)c3OB2O)c2c(F)cc(O)c(O)c2Cl)C(=O)C1=O` (single isomer, unassigned) [Example 27], for which the MIC with N. gonorrhoeae H041 was more than 64 mg/L; with N. gonorrhoeae WHO L, more than 64 mg/L; in experiment [1], more than 64 mg/L; with N. gonorrhoeae WHO G, 16 to 32 mg/L (≈ 25 to 50 µM); with N. gonorrhoeae WHO K it was more than 64 mg/L; with N. gonorrhoeae FA1090, 16 to 32 mg/L (≈ 25 to 50 µM). Further, the EC50 in experiment [2] fell in the range of 30 to 100 µM.
Take `O=C(O)c1c(F)ccc2c1OB(O)[C@@H](NC(=O)[C@H](NC(=O)N1CCNC1=O)c1c(F)cc(O)c(O)c1Cl)C2` (single isomer, unassigned) [Example 34]: the MIC in the experiment on N. gonorrhoeae H041 was more than 64 mg/L; in the experiment with N. gonorrhoeae WHO L, more than 64 mg/L; in experiment [1] it was 16 to 32 mg/L (≈ 28.8 to 57.7 µM); in the experiment on N. gonorrhoeae WHO G, 16 to 32 mg/L (≈ 28.8 to 57.7 µM); in the experiment with N. gonorrhoeae WHO K, more than 64 mg/L; in the experiment on N. gonorrhoeae FA1090, 4 to 8 mg/L (≈ 7.21 to 14.4 µM). Further, the EC50 in [2] was more than 100 µM.
For `CS(=O)(=O)N1CCN(C(=O)N[C@@H](C(=O)N[C@H]2Cc3ccc(F)c(C(=O)O)c3OB2O)c2c(F)cc(O)c(O)c2Cl)C1=O` (single isomer, unassigned) [Example 35], the MIC in the experiment on N. gonorrhoeae H041 is more than 64 mg/L; in the experiment on N. gonorrhoeae WHO L, more than 64 mg/L; in experiment [1] it was 16 to 32 mg/L (≈ 25.3 to 50.6 µM); in the experiment on N. gonorrhoeae WHO G it was 16 to 32 mg/L (≈ 25.3 to 50.6 µM); with N. gonorrhoeae WHO K it was more than 64 mg/L; in the experiment with N. gonorrhoeae FA1090 it was 4 to 8 mg/L (≈ 6.32 to 12.6 µM). In experiment [2], the EC50 lay in the range of 30 to 100 µM.
With `NCCN1CCN(C(=O)N[C@@H](C(=O)N[C@H]2Cc3ccc(F)c(C(=O)O)c3OB2O)c2c(F)cc(O)c(O)c2F)C(=O)C1=O` (single isomer, unassigned) [Example 40], the MIC with N. gonorrhoeae H041 is more than 64 mg/L; in the experiment on N. gonorrhoeae WHO L, more than 64 mg/L; in experiment [1] it was 16 to 32 mg/L (≈ 26.3 to 52.5 µM); with N. gonorrhoeae WHO G, 16 to 32 mg/L (≈ 26.3 to 52.5 µM); in the experiment with N. gonorrhoeae WHO K, more than 64 mg/L; with N. gonorrhoeae FA1090 it was 4 to 8 mg/L (≈ 6.57 to 13.1 µM). For the same compound, the EC50 in experiment [2] is more than 100 µM.
In the case of `NCCCN1CCN(C(=O)N[C@@H](C(=O)N[C@H]2Cc3ccc(F)c(C(=O)O)c3OB2O)c2c(F)cc(O)c(O)c2F)C(=O)C1=O` (single isomer, unassigned) [Example 41], the MIC in the experiment on N. gonorrhoeae H041 is more than 64 mg/L; with N. gonorrhoeae WHO L, more than 64 mg/L; in experiment [1], 16 to 32 mg/L (≈ 25.7 to 51.3 µM); with N. gonorrhoeae WHO G it was 16 to 32 mg/L (≈ 25.7 to 51.3 µM); in the experiment with N. gonorrhoeae WHO K, more than 64 mg/L; with N. gonorrhoeae FA1090 it was 4 to 8 mg/L (≈ 6.42 to 12.8 µM). The EC50 in experiment [2] lay in the range of 30 to 100 µM.
Take `O=C(O)c1ccc(C(NC(=O)c2ccc(O)c(O)c2Cl)C(=O)N[C@H]2Cc3cccc(C(=O)O)c3OB2O)cc1F` (stereo partly drawn) [Example 7, (3R)-3-(2-(4-carboxy-3-fluorophenyl)-2-(2-chloro-3,4-dihydroxybenzamido)acetamido)-2-hydroxy-3,4-dihydro-2H-benzo[e][1,2]oxaborinine-8-carboxylic acid]: the MIC is more than 64 mg/L in the experiment with N. gonorrhoeae H041; more than 64 mg/L in the experiment with N. gonorrhoeae WHO L; more than 64 mg/L in experiment [1]; more than 64 mg/L with N. gonorrhoeae WHO G; more than 64 mg/L in the experiment with N. gonorrhoeae WHO K; 16 to 32 mg/L (≈ 27.9 to 55.9 µM) in the experiment on N. gonorrhoeae FA1090. Moreover, the EC50 in experiment [2] was more than 100 µM.
For `O=C(NC(C(=O)N[C@H]1Cc2ccc(F)c(C(=O)O)c2OB1O)c1ncc(O)cc1F)c1ccc(O)c(O)c1Cl` (stereo partly drawn) [Example 8, (3R)-3-(2-(2-chloro-3,4-dihydroxybenzamido)-2-(3-fluoro-5-hydroxypyridin-2-yl)acetamido)-7-fluoro-2-hydroxy-3,4-dihydro-2H-benzo[e][1,2]oxaborinine-8-carboxylic acid], the MIC in the experiment on N. gonorrhoeae H041 was more than 64 mg/L; in the experiment with N. gonorrhoeae WHO L, more than 64 mg/L; in experiment [1], more than 64 mg/L; in the experiment on N. gonorrhoeae WHO G, 16 to 32 mg/L (≈ 28.4 to 56.8 µM); in the experiment with N. gonorrhoeae WHO K it was more than 64 mg/L; in the experiment with N. gonorrhoeae FA1090 it was 4 to 8 mg/L (≈ 7.1 to 14.2 µM). In addition, the EC50 in [2] was more than 100 µM.
Take `O=C(Nc1ccc(O)c(O)c1Cl)NC(C(=O)N[C@H]1Cc2ccc(F)c(C(=O)O)c2OB1O)c1ncc(O)cc1F` (stereo partly drawn) [Example 9, (3R)-3-(2-(3-(2-chloro-3,4-dihydroxyphenyl)ureido)-2-(3-fluoro-5-hydroxypyridin-2-yl)acetamido)-7-fluoro-2-hydroxy-3,4-dihydro-2H-benzo[e][1,2]oxaborinine-8-carboxylic acid]: the MIC was more than 64 mg/L with N. gonorrhoeae H041; more than 64 mg/L with N. gonorrhoeae WHO L; more than 64 mg/L in [1]; more than 64 mg/L in the experiment with N. gonorrhoeae WHO G; more than 64 mg/L with N. gonorrhoeae WHO K; 16 to 32 mg/L (≈ 27.6 to 55.3 µM) in the experiment on N. gonorrhoeae FA1090. Besides, the EC50 in [2] was 30 to 100 µM.
On to `CS(=O)(=O)N1CCN(C(=O)NC(C(=O)N[C@H]2Cc3ccc(F)c(C(=O)O)c3OB2O)c2ccc(O)c(O)c2Cl)C1=O` (stereo partly drawn) [Example 23, (3R)-3-(2-(2-chloro-3,4-dihydroxyphenyl)-2-(3-(methylsulfonyl)-2-oxoimidazolidine-1-carboxamido)acetamido)-7-fluoro-2-hydroxy-3,4-dihydro-2H-benzo[e][1,2]oxaborinine-8-carboxylic acid], for which the MIC in the experiment on N. gonorrhoeae H041 was more than 64 mg/L; in the experiment on N. gonorrhoeae WHO L it was more than 64 mg/L; in experiment [1] it was more than 64 mg/L; with N. gonorrhoeae WHO G, 16 to 32 mg/L (≈ 26 to 52.1 µM); in the experiment on N. gonorrhoeae WHO K, more than 64 mg/L; with N. gonorrhoeae FA1090, 4 to 8 mg/L (≈ 6.51 to 13 µM). Besides, the EC50 in experiment [2] fell in the range of 30 to 100 µM.
As for `NC(C(=O)N[C@H]1Cc2ccc(F)c(C(=O)O)c2OB1O)c1c(F)cc(O)c(O)c1Cl` (stereo partly drawn) [Example 25, (3R)-3-(2-amino-2-(2-chloro-6-fluoro-3,4-dihydroxyphenyl)acetamido)-7-fluoro-2-hydroxy-3,4-dihydro-2H-benzo[e][1,2]oxaborinine-8-carboxylic acid], the MIC (in the experiment on N. gonorrhoeae H041; in the experiment with N. gonorrhoeae WHO L; in experiment [1]; in the experiment on N. gonorrhoeae WHO G; in the experiment with N. gonorrhoeae WHO K; in the experiment on N. gonorrhoeae FA1090) was more than 64 mg/L throughout. For the same compound, in experiment [2], the EC50 was more than 100 µM.
Turning to `CCN1CCN(C(=O)NC(C(=O)N[C@H]2Cc3ccc(F)c(C(=O)O)c3OB2O)c2c(F)cc(O)c(O)c2F)C(=O)C1=O` (stereo partly drawn) [Example 36, (3R)-3-(2-(2,6-difluoro-3,4-dihydroxyphenyl)-2-(4-ethyl-2,3-dioxopiperazine-1-carboxamido)acetamido)-7-fluoro-2-hydroxy-3,4-dihydro-2H-benzo[e][1,2]oxaborinine-8-carboxylic acid], the MIC in the experiment on N. gonorrhoeae H041 was 16 to 32 mg/L (≈ 26.9 to 53.8 µM); with N. gonorrhoeae WHO L it was more than 64 mg/L; in experiment [1] it was 16 to 32 mg/L (≈ 26.9 to 53.8 µM); in the experiment with N. gonorrhoeae WHO G it was 16 to 32 mg/L (≈ 26.9 to 53.8 µM); in the experiment on N. gonorrhoeae WHO K it was 16 to 32 mg/L (≈ 26.9 to 53.8 µM); in the experiment with N. gonorrhoeae FA1090 it was 4 to 8 mg/L (≈ 6.73 to 13.5 µM). Besides, the EC50 in experiment [2] lay within 10 to 30 µM.
In the case of `CCN1CCN(C(=O)NC(C(=O)N[C@H]2Cc3cccc(C(=O)O)c3OB2O)c2cccc(S(N)(=O)=O)c2)C(=O)C1=O` (stereo partly drawn) [Example 99, (3R)-3-(2-(4-ethyl-2,3-dioxopiperazine-1-carboxamido)-2-(3-sulfamoylphenyl)acetamido)-2-hydroxy-3,4-dihydro-2H-benzo[e][1,2]oxaborinine-8-carboxylic acid], the MIC in the experiment with N. gonorrhoeae H041 was 16 to 32 mg/L (≈ 27.2 to 54.5 µM); with N. gonorrhoeae WHO Z it was 16 to 32 mg/L (≈ 27.2 to 54.5 µM); with N. gonorrhoeae WHO L, more than 64 mg/L; in experiment [1], 16 to 32 mg/L (≈ 27.2 to 54.5 µM); in the experiment with N. gonorrhoeae WHO G, 1 to 2 mg/L (≈ 1.7 to 3.4 µM); with N. gonorrhoeae WHO K it was 16 to 32 mg/L (≈ 27.2 to 54.5 µM). Besides, the values for the MIC with N. gonorrhoeae WHO Q and in the experiment on N. gonorrhoeae FA1090 were 16 to 32 mg/L (≈ 27.2 to 54.5 µM) and 0.25 to 0.5 mg/L (≈ 0.426 to 0.851 µM), respectively.
